The values below come from ChEMBL document CHEMBL6103588, “Promising thiazolidinedione-thiazole based multi-target and neuroprotective hybrids for Alzheimer's disease: Design, synthesis, in-vitro, in-vivo and in-silico studies” (Eur J Med Chem, 2025).

Molecules are shown by their SMILES. Activity calls are given as the source filed them. No cut-off for these calls is given here. Where only a bound is given, the exact number is not on record here.

As usually defined, the mortality is the share of the test organisms that died. Usually IC50 stands for the point on the concentration scale where inhibition reaches its midpoint. In general, Papp refers to a coefficient for how fast a substance crosses the barrier. Low readings indicate slow passage, high ones fast passage. As usually defined, the logP is a log measure of how a compound divides between an organic and an aqueous phase.

Series [1] deals with Mus musculus. The series is described as follows: Antioxidant activity against scopolamine-induced Albino mouse assessed as increase in SOD level in brain at 5 mg/kg measured after 24 hrs. Type of series: functional.
Series [2] is described as follows: Acute toxicity in male Swiss albino mouse assessed as mortality rate at 900 mg/kg BW, po administered as single dose via gavage measured after 48 hrs by up-and-down method relative to control. Type of series: organism-based. Conditions: in vivo.
The target of the next series is Acetylcholinesterase (Electrophorus electricus, UniProt O42275). Description: Inhibition of Electric eel AChE using acetylthiocholine iodide as substrate pre-incubated for 10 mins followed by substrate addition and measured after 15 mins by DTNB reagent based Ellman's method. Conditions: read-out: IC50. (DTNB colorimetry detects thiols as they appear.)
In series [3] the test system is Mus musculus. Description: Antioxidant activity against scopolamine-induced Albino mouse assessed as increase in GSH-Px level in brain at 5 mg/kg measured after 24 hrs. Type of series: functional.
The target in a further series is Cholinesterase (Equus caballus, UniProt P81908). The series is described as follows: Inhibition of equine serum BuChE using butyrylthiocholine iodide as substrate pre-incubated for 10 mins followed by substrate addition and measured after 15 mins by DTNB reagent based Ellman's method.
The nature of series [4]: Acute toxicity in male Swiss albino mouse assessed as survival time at 50 mg/kg BW, po administered as single dose via gavage by up-and-down method. Type of series: organism-based. Conditions: in vivo.
Series [5] can be described thus: Acute toxicity in male Swiss albino mouse assessed as mortality rate at 450 to 50 mg/kg BW, po administered as single dose via gavage measured after 48 hrs by up-and-down method relative to control. The conditions noted are these: in vivo, at 50 to 450 mg/kg, dose 450-50 mg/kg. Type of series: organism-based.
Series [6] is described as follows: Acute toxicity in male Swiss albino mouse assessed as signs of pain at 1500 mg/kg BW, po administered as single dose via gavage measured after 48 hrs by up-and-down method. Type of series: organism-based. Conditions: in vivo.
The nature of series [7]: Acute toxicity in male Swiss albino mouse assessed as lethargy at 450 mg/kg BW, po administered as single dose via gavage measured after 1 hrs by up-and-down method. Type of series: organism-based. The conditions noted are these: in vivo.
A short description of series [8]: Acute toxicity in male Swiss albino mouse assessed as signs of distress at 1500 mg/kg BW, po administered as single dose via gavage measured after 48 hrs by up-and-down method. The class given is organism-based. Conditions: in vivo.
A further series addresses Beta-secretase 1 (Homo sapiens, UniProt P56817). Description: Inhibition of BACE-1 (unknown origin) 667-676- (2, 4-dinitrophenyl) Lys-Arg-Arg amide trifluoroacetate as substrate preincubated for 15 mins followed by substrate addition and measured after 2 hrs by fluorescence spectrometric analysis. Conditions: read-out: IC50.
In series [9] the target is T1, Prostaglandin G/H synthase 2 (Homo sapiens, UniProt P35354).
T1 sequence (P35354 whole entry): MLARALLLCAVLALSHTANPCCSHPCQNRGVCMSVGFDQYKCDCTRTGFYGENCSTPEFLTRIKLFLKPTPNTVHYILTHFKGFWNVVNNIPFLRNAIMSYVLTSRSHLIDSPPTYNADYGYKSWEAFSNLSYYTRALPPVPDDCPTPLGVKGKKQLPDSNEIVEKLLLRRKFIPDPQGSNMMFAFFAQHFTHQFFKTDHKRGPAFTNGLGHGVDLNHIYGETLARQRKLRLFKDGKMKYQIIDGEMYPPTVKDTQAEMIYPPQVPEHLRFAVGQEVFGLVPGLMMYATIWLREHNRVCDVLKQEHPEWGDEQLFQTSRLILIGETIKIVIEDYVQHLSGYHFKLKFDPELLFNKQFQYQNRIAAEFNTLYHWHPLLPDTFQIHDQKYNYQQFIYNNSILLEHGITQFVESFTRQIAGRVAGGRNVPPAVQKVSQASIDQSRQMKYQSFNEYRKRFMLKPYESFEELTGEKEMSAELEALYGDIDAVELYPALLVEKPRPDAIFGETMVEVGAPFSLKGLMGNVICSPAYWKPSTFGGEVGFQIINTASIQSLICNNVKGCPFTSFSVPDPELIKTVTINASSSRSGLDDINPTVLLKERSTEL
Description: Inhibition of COX-2 (unknown origin) using arachidonic acid as substrate and in presence of TMPD preincubated for 5 mins followed by substrate addition and measured after 5 mins by UV visible spectrophotometric analysis

Series [10] relates to Mus musculus. Description: Antioxidant activity against scopolamine-induced Albino mouse assessed as increase in catalase activity in brain at 5 mg/kg measured after 24 hrs. Type of series: functional, organism-based.
The target of series [11] is T2, Amine oxidase [flavin-containing] B (Homo sapiens, UniProt P27338).
T2 sequence (P27338 whole entry): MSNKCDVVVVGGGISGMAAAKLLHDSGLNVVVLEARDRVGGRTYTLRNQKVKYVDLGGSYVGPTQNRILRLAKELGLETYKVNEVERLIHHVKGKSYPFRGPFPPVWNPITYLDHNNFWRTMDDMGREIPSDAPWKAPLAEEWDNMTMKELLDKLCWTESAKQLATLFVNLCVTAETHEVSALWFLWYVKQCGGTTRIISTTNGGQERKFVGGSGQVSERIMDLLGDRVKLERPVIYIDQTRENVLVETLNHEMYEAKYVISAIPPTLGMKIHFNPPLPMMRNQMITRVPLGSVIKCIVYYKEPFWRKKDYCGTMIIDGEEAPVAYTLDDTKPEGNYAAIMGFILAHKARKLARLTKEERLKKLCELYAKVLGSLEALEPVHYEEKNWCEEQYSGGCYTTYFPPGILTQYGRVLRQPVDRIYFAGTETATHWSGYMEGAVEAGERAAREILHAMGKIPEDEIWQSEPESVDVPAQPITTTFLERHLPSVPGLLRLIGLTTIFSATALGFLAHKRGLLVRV
The series is described as follows: Inhibition of human MAO-B using tyramine/benzylamine as substrate measured after 30 mins by fluorometric assay.

Series [12] is described as follows: Acute toxicity in male Swiss albino mouse assessed as piloerection at 450 mg/kg BW, po administered as single dose via gavage measured after 1 hrs by up-and-down method. The class given is organism-based. Conditions: in vivo.
Series [13] can be described thus: Acute toxicity in male Swiss albino mouse assessed as signs of pain at 1200 mg/kg BW, po administered as single dose via gavage measured after 20 mins by up-and-down method. The conditions noted are these: in vivo. The class given is organism-based.
The subject of series [14] is Mus musculus. Description: Antioxidant activity against scopolamine-induced Albino mouse assessed as decrease in MDA level in brain at 5 mg/kg measured after 24 hrs. The class given is functional.
The nature of the next series: in vitro. Conditions: PAMPA, pH 7.4.
Series [15] is described as follows: Lipophilicity, logP of compound. Type of series: physicochemical. Conditions: octanol/water.
Series [16] can be described thus: Neurotoxicity against human SH-SY5Y cells assessed as reduction in cell viability upto 50 uM incubated for 24 hrs by MTT assay. The class given is toxicity, cell-based.

Sequence of Beta-secretase 1 (P56817 whole entry): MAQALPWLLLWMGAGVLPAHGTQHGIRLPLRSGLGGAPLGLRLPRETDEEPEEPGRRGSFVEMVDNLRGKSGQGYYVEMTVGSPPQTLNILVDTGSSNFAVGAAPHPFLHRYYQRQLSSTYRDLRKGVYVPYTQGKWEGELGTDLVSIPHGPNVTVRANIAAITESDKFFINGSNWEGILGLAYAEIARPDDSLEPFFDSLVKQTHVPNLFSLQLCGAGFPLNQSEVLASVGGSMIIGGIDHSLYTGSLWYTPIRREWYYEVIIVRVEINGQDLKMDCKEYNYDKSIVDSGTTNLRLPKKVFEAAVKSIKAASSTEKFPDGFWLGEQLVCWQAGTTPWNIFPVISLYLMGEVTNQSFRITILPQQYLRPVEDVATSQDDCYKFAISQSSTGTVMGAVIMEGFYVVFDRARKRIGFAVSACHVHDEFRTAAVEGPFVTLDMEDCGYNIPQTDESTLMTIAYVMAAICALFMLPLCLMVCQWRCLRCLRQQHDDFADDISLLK
Sequence of Cholinesterase (P81908 whole entry): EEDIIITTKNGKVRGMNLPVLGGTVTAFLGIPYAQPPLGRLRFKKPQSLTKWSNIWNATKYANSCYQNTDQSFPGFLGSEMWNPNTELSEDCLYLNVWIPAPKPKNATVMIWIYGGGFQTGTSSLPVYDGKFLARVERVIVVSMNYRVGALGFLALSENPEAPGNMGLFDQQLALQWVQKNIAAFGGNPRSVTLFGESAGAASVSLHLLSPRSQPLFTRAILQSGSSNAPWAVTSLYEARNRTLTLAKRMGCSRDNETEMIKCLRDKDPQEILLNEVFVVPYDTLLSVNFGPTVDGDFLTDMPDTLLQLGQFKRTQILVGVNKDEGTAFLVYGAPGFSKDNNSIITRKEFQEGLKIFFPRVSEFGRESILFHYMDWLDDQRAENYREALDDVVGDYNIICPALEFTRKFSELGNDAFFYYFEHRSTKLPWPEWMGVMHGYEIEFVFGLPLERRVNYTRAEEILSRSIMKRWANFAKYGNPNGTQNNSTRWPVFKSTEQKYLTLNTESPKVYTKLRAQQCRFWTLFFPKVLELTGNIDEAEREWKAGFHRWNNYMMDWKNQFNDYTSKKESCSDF
Sequence of Acetylcholinesterase (O42275 whole entry): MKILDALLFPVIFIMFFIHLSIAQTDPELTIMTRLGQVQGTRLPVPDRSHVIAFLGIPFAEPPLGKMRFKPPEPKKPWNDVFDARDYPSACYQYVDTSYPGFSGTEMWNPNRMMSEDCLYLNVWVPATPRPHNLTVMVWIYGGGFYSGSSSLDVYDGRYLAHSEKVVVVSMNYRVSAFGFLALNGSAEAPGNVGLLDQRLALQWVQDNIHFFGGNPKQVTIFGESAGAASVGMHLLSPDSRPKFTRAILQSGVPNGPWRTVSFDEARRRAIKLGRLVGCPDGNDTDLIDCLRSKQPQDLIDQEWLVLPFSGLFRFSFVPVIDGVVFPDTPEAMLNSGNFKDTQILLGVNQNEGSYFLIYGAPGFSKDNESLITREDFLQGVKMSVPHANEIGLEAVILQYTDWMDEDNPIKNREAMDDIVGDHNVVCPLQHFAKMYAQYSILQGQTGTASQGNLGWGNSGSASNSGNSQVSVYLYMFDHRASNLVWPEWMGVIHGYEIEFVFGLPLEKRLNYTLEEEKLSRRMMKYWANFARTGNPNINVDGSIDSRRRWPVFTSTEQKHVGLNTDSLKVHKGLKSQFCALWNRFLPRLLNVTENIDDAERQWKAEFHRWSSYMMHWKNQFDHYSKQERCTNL
Description for in vitro: Permeability of compound in PBS at pH 7.4 incubated for 20 hrs by PAMPA-BBB assay

Regarding `COc1cc(/C=C/C(=O)Nc2ccc3sc(NCN4C(=O)CSC4=O)nc3c2)ccc1O`, the Activity in the series on Mus musculus [1] is given as 95.03 U/ml; with Mus musculus [3] it was 230 U/ml; in [6] it was “Toxic”; in series [7] it was “Toxic”; in [8], “Toxic”; in [12], “Toxic”. In addition, the values for the Activity result (in [13]; in the series on Mus musculus [14]; in series [16]) were “Toxic”, 1.95 nmol/mL and “Non-toxic”, respectively. In addition, the mortality at 48 h in series [2] turned out to be 66.7%; in series [5], 0%. For the same compound, the IC50 at Acetylcholinesterase was determined as 72 nM; against Cholinesterase, 9810 nM; on Beta-secretase 1, 2420 nM; in series [9] it was 187 nM; in series [11], 24 nM. Also, the Time in series [4] is over 48 h. In addition, the outcome in the series with Mus musculus [10] was Active. The same compound returned a Papp at 20 h in “in vitro” of 5.7 ×10⁻⁶ cm/s. In series [15], this compound came in with a logP of 3.34.
